Reference: ChEMBL document CHEMBL5465560, “Selectivity Literature for EUbOPEN Chemogenomic Library” (2024)

Key:
[1] = target: Insulin-like growth factor 1 receptor (Homo sapiens, UniProt P08069); assay: Selectivity interaction (KinomeScan (DiscoverX)) EUB0000229b IGF1R; conditions: at 10 µM
[2] = target: Histone-lysine N-methyltransferase, H3 lysine-36 specific (Homo sapiens) (UniProt Q96L73); conditions: at 1 µM
[3] = target: Serine/threonine-protein kinase N2 (Homo sapiens, UniProt Q16513); assay: Selectivity interaction (KinomeScan (DiscoverX)) EUB0000045b PKN2
Chain of Serine/threonine-protein kinase N2 (Q16513 whole entry, looked up): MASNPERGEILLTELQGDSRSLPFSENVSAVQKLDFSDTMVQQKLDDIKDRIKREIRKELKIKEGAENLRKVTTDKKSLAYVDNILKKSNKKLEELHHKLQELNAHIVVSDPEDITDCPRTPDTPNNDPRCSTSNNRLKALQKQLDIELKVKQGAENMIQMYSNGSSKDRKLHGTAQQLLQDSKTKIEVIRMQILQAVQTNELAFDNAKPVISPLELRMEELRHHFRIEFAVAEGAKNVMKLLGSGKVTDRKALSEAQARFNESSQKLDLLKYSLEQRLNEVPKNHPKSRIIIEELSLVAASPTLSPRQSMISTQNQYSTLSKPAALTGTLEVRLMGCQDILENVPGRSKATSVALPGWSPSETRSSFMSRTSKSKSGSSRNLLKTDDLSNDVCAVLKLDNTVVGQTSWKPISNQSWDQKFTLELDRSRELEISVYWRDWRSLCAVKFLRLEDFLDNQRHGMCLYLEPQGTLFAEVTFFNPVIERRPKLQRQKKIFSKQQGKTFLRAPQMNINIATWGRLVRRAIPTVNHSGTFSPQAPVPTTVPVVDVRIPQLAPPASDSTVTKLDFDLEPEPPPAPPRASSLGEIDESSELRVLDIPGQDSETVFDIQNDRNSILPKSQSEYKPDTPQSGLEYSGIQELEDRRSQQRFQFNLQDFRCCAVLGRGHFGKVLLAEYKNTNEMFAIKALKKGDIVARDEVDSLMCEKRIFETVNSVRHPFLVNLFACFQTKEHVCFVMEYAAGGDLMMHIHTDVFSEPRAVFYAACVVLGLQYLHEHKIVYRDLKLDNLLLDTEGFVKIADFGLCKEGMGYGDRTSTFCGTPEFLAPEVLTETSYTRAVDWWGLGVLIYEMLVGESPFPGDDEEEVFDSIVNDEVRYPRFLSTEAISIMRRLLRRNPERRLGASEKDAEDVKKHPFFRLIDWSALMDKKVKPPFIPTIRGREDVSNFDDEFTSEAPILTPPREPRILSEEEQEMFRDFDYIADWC

[4] = target: Bone morphogenetic protein receptor type-1B (Homo sapiens, UniProt O00238); assay: Selectivity interaction (KinomeScan (DiscoverX)) EUB0000045b BMPR1B
Chain of Bone morphogenetic protein receptor type-1B (O00238 whole entry): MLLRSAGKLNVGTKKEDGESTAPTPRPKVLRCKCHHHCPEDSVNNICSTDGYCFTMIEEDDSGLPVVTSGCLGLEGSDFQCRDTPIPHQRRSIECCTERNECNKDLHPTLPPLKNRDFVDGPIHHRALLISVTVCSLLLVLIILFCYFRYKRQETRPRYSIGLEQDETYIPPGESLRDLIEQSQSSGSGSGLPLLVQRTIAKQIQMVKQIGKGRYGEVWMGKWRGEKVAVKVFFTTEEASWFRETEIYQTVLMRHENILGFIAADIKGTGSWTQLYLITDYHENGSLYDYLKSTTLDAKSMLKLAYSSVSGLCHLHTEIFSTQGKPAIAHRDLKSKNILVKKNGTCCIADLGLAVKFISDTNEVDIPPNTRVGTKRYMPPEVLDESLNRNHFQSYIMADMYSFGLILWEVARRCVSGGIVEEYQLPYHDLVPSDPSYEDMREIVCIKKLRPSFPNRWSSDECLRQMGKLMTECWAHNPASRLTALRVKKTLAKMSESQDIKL

[5] = target: T1, Rhodopsin kinase GRK1 (Homo sapiens) (UniProt Q15835); assay: Selectivity interaction (KinomeScan (DiscoverX)) EUB0000045b GRK1
T1 sequence (whole entry): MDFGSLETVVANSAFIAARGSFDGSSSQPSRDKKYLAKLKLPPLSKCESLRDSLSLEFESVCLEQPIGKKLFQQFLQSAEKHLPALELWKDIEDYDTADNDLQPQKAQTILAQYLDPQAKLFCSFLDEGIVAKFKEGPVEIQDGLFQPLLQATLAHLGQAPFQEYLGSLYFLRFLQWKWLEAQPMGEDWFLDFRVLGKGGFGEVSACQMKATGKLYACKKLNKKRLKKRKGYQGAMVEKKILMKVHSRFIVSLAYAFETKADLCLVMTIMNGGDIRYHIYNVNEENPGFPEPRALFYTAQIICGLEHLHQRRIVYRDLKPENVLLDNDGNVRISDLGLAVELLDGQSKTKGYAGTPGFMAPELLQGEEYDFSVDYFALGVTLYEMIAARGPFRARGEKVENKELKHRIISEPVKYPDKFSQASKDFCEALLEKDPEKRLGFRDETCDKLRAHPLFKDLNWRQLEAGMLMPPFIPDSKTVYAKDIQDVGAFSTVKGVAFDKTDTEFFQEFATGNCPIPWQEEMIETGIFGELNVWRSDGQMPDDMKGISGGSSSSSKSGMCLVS

[6] = target: Tyrosine-protein kinase JAK1 (Homo sapiens, UniProt P23458); assay: Selectivity interaction (KinomeScan (DiscoverX)) EUB0000695a JAK1; conditions: at 100 nM
[7] = target: MAP kinase-interacting serine/threonine-protein kinase 1 (Homo sapiens) (UniProt Q9BUB5); assay: Selectivity interaction (Kinase panel (Z-LYTE Assay)) EUB0001632a MKNK1; conditions: at 10 µM
[8] = target: Ribosomal protein S6 kinase alpha-2 (Homo sapiens) (UniProt Q15349); assay: Selectivity interaction (KinomeScan (DiscoverX)) EUB0000666a RPS6KA2; conditions: at 10 µM
[9] = system: Tyrosine-protein kinase ABL1 (Homo sapiens), P00519 [F317I]; assay: (§1) Selectivity interaction (KinomeScan (DiscoverX)) EUB0000666a ABL1; conditions: at 10 µM
[10] = system: Tyrosine-protein kinase ABL1 (Homo sapiens), P00519 [Q252H]; assay: as §1; conditions: at 10 µM
[11] = system: Tyrosine-protein kinase ABL1 (Homo sapiens), P00519 [F317L]; assay: as §1; conditions: at 10 µM
[12] = system: Tyrosine-protein kinase ABL1 (Homo sapiens), P00519 [E255K]; assay: as §1; conditions: at 10 µM
[13] = system: Tyrosine-protein kinase ABL1 (Homo sapiens), P00519 [T315I]; assay: as §1; conditions: at 10 µM
[14] = target: Tyrosine-protein kinase ABL1 (Homo sapiens, UniProt P00519); assay: as §1; conditions: at 10 µM
[15] = system: Tyrosine-protein kinase ABL1 (Homo sapiens), P00519 [H396P]; assay: as §1; conditions: at 10 µM
[16] = target: Tyrosine-protein kinase receptor UFO (Homo sapiens) (UniProt P30530); assay: Selectivity interaction (KinomeScan (DiscoverX)) EUB0000666a AXL; conditions: at 10 µM
Chain of Tyrosine-protein kinase receptor UFO (Homo sapiens) (P30530 whole entry): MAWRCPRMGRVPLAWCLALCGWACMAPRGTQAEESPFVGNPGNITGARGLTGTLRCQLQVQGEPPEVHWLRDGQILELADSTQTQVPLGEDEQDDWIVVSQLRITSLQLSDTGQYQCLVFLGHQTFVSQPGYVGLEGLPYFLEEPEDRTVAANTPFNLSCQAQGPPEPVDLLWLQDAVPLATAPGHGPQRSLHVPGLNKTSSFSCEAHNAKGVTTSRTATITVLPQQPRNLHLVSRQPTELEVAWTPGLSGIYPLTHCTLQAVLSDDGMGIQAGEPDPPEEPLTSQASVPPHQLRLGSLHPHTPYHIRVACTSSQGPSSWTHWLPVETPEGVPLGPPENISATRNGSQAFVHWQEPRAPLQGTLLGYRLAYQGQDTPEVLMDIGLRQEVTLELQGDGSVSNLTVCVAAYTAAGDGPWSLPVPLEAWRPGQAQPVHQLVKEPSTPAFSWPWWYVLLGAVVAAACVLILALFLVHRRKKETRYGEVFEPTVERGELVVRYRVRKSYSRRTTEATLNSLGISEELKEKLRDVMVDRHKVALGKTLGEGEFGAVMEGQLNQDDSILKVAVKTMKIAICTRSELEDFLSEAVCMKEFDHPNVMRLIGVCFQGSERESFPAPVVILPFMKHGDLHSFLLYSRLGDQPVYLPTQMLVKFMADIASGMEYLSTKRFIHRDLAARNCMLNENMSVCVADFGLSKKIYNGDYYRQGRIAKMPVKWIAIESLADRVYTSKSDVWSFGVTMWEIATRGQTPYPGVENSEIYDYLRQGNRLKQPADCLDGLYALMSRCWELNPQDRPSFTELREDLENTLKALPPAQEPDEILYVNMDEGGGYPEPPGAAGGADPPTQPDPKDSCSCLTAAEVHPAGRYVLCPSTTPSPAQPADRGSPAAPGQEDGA

[17] = target: BDNF/NT-3 growth factors receptor (Homo sapiens) (UniProt Q16620); assay: Selectivity interaction (Upstate Kinase Profiler service (Millipore)) EUB0000056c NTRK2; conditions: at 1 µM
[18] = target: Histone-lysine N-methyltransferase KMT5B (Homo sapiens) (UniProt Q4FZB7); assay: Selectivity interaction (Methyltransferase screen (Scintillation proximity assays)) EUB0000255b SUV420H1
Chain of Histone-lysine N-methyltransferase KMT5B (Homo sapiens) (Q4FZB7 whole entry, looked up): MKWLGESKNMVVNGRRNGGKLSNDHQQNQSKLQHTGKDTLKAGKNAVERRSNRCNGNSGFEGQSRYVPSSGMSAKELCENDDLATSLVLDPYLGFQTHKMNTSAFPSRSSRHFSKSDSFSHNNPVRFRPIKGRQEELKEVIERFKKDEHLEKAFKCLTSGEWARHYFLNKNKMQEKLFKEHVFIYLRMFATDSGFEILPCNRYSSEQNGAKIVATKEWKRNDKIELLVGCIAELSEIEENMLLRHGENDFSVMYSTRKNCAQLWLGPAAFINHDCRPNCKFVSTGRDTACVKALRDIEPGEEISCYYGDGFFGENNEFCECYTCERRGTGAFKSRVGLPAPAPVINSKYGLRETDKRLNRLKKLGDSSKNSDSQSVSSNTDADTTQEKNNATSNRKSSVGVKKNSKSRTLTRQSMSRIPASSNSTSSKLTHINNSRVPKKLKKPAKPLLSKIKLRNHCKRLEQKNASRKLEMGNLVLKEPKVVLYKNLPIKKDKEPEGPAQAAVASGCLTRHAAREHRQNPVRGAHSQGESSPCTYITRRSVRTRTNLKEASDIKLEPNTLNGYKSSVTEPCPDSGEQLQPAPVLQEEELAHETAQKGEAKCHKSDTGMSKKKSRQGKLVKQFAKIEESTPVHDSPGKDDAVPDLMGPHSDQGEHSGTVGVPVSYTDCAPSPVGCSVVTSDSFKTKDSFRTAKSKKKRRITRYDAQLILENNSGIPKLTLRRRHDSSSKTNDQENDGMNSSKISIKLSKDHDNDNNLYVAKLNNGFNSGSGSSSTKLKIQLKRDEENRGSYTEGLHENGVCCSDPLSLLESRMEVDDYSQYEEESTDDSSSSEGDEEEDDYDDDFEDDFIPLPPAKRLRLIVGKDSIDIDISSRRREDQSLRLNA

[19] = target: Fibroblast growth factor receptor 2 (Homo sapiens) (UniProt P21802); assay: Selectivity interaction (Kinase panel (Invitrogen)) EUB0000639a FGFR2; conditions: at 200 nM
[20] = target: Dual specificity tyrosine-phosphorylation-regulated kinase 1B (Homo sapiens, UniProt Q9Y463); assay: Selectivity interaction (KinomeScan (DiscoverX)) EUB0000092b DYRK1B; conditions: at 10 µM
[21] = target: Casein kinase II subunit alpha (Homo sapiens, UniProt P68400); assay: Selectivity interaction (Ambit KINOMEscan and KiNATiv profiling in Jurkat cells) EUB0000090b CSNK2A1; assay type: cell-based; conditions: at 1 µM
Chain of Casein kinase II subunit alpha (P68400 whole entry, looked up): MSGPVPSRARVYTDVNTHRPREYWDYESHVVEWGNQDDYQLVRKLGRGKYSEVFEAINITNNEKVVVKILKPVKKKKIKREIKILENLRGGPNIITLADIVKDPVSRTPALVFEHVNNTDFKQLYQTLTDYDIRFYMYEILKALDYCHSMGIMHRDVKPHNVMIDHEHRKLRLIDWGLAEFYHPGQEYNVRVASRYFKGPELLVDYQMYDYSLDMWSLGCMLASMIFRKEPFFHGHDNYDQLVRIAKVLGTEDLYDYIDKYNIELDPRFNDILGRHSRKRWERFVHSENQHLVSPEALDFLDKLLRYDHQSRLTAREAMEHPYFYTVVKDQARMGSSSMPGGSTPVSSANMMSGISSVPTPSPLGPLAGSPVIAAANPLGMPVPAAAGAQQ

[22] = target: T2, Muscle, skeletal receptor tyrosine-protein kinase (Homo sapiens) (UniProt O15146); assay: Selectivity interaction (Ambit KINOMEscan and KiNATiv profiling in Jurkat cells) EUB0000090b MUSK; assay type: cell-based; conditions: at 1 µM
T2 sequence (whole entry): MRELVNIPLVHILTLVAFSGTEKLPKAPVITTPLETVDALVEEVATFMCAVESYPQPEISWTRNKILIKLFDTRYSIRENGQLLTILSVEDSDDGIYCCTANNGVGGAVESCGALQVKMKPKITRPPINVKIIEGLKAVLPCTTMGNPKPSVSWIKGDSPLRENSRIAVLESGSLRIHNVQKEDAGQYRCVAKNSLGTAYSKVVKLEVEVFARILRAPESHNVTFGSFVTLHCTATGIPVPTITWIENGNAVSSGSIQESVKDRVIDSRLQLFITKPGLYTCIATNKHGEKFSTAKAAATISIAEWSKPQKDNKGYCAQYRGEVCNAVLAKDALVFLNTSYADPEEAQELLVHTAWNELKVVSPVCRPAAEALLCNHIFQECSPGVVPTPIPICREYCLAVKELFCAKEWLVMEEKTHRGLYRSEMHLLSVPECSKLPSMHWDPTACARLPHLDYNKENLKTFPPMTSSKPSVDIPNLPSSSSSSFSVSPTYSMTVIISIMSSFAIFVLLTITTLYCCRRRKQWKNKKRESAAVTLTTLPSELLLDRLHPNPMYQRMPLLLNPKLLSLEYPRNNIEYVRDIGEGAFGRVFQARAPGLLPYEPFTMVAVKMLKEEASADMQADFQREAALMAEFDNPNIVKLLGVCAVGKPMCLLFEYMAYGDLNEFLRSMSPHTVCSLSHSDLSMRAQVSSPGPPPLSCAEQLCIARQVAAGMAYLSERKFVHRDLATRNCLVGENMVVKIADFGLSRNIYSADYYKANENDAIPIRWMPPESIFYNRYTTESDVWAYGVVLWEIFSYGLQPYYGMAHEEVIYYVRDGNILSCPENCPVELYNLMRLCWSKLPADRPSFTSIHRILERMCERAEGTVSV

Chain of Insulin-like growth factor 1 receptor (P08069 31-736 limits assumed): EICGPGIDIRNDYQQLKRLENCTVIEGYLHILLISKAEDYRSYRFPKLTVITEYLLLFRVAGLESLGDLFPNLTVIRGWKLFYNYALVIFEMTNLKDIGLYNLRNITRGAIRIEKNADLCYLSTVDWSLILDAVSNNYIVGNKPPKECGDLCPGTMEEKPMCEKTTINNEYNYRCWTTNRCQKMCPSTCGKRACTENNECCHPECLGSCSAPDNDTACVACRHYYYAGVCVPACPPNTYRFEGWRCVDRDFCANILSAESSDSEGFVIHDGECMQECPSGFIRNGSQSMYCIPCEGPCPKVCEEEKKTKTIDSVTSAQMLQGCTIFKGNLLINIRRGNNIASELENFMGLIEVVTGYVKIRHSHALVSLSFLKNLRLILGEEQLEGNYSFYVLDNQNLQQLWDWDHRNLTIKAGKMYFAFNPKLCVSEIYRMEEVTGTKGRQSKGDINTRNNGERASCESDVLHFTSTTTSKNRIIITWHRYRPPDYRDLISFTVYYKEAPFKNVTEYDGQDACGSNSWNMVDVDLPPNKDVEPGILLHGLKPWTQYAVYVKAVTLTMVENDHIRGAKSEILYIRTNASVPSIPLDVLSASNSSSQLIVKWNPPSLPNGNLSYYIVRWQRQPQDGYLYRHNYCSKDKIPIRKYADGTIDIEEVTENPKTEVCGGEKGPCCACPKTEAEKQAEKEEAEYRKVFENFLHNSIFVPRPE
Chain of Insulin-like growth factor 1 receptor (P08069 741-1367 limits assumed): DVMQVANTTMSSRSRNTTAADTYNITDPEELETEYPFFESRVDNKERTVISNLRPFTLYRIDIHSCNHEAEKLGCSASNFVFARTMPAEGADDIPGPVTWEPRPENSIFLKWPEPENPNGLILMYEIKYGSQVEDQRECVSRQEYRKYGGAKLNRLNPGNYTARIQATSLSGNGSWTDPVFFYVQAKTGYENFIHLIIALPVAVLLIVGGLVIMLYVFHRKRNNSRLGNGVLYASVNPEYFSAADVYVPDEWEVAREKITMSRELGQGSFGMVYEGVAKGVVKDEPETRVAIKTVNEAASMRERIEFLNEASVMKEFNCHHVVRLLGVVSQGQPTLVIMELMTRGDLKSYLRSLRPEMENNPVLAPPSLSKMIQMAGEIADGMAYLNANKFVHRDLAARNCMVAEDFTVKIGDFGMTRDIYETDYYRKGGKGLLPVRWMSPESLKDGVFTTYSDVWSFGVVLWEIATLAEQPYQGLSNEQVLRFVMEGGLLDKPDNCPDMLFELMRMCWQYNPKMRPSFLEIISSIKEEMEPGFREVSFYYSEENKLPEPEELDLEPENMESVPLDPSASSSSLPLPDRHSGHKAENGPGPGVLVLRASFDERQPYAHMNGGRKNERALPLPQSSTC

## COc1cc(N(C)c2ccnc3ccc(C(F)(F)F)cc23)cc(OC)c1OC
[1]
  % binding: 93%

## CNCCN1CCC(c2cc(CN(C)C(=O)c3cccc(Oc4ccccc4)c3)ccn2)CC1
[2]
  % activity: > 90%

## C=CC(=O)Nc1cc(-n2c(=O)ccc3cnc4ccc(-c5ccc(NS(C)(=O)=O)cc5)cc4c32)ccc1C
[3]; at 1 µM
  % of control: 100%
[3]; at 10 µM
  % of control: 100%
[4]; at 1 µM
  % of control: 100%
[4]; at 10 µM
  % of control: 80%
[5]; at 1 µM
  % of control: 100%
[5]; at 10 µM
  % of control: 99%

## Cc1cc(F)c(C(=O)Nc2cccc(-c3nncn3C(C)C)n2)cc1-n1cnc(C2CC2)c1
[6]
  % of control: 93%

## Cn1cc(-n2cnc3c(NCc4nc5cc(Cl)c(Cl)cc5[nH]4)nc(N4CCOCC4)nc32)cn1
[7]
  % of control: 2.99%

## O=C(NOC[C@H](O)CO)c1ccc(F)c(F)c1Nc1ccc(I)cc1F
[8]
  % of control: 100%
[9]
  % of control: 100%
[10]
  % of control: 100%
[11]
  % of control: 100%
[12]
  % of control: 100%
[13]
  % of control: 82%
[14]
  % of control: 77%
[15]
  % of control: 100%
[16]
  % of control: 83%

## Cc1ccc(-c2ccc3c(ccc4sc5c(c43)NC[C@@H](C)NC5=O)n2)cn1
[17]
  % of inhibition: -8%

## COCCN1CCC(c2cc(CN(C)C(=O)c3cccc(Oc4ccccc4)c3)ccn2)CC1
[18]; at 1 µM
  % activity: > 95%
[18]; at 10 µM
  % activity: > 90%

## CC[C@@H]1[C@H](F)C(=O)N[C@@H]1COc1nccc2cc(C(N)=O)c(OC)cc12 [ZIMLOVISERTIB]
[19]
  % of inhibition: -3.82%

## CCC(=O)N1CCN(c2ccc(-n3c(=O)ccc4cnc5ccc(-c6cnc7ccccc7c6)cc5c43)cc2C(F)(F)F)CC1
[20]
  % of control: 87%

## CN(C)C/C=C/C(=O)Nc1ccc(C(=O)N2CCCC(Nc3ncc(Cl)c(-c4c[nH]c5ccccc45)n3)C2)cc1 (stereo unspecified)
[21]
  % of control: 78%
[22]
  % of control: 96%
